Laboratory results published in the NIST ThermoML archive (doi:10.1016/j.fluid.2019.05.003).

Assay: xn = mol fraction of the nth substance listed
Settings: 101 kPa, Liquid, x2 = 0; for viscosity: Falling or rolling sphere viscometry; for mass density: Vibrating tube method

O [water] + CC[n+]1ccccc1.[Br-]
Settings	mass density [kg/m3]	viscosity [mPa·s]
298.15 K	–	0.89
303.15 K	–	0.797
308.15 K	–	0.719
313.15 K	–	0.653
318.15 K	990.1	0.596
323.15 K	987.9	0.547
328.15 K	985.6	0.504
333.15 K	983.2	0.466
338.15 K	980.3	0.433
343.15 K	978.1	0.404
348.15 K	974.8	0.378
